{"source": "patent US20210009551A1", "about": "“COMPOUNDS AND METHODS FOR TREATING FIBROSIS OR CANCER” (THE REGENTS OF THE UNIVERSITY OF CALIFORNIA, priority 2016, published 2021)", "key": {"[1]": {"system": "TGFβ1 signaling (p-smad3) in A549 cells", "assay": "TGFβ1-induced p-smad generation in cells (immunoblot)", "type": "cell-based", "details": "0.5-10 μM", "method": "(§1) Immunoblot. Pulverized tissue and cells were lysed in RIP A buffer (150 mM NaCl, 50 mM Tris, pH 8.0, 1% Triton X-100, 0.5% sodium deoxycholate, 0.1% SDS, supplemented with protease and phosphatase inhibitors) and analyzed by immunoblotting. Densitometry was quantified using NIH Imaged software."}, "[2]": {"target": "T1, human TGFbeta receptor I and II (Homo sapiens, UniProt P36897)", "T1 construct": "expressed in transfected cells; host or cells: A549 cells, anti-Flag immunoprecipitate on Protein G-agarose", "T1 sequence (P36897 34-503)": "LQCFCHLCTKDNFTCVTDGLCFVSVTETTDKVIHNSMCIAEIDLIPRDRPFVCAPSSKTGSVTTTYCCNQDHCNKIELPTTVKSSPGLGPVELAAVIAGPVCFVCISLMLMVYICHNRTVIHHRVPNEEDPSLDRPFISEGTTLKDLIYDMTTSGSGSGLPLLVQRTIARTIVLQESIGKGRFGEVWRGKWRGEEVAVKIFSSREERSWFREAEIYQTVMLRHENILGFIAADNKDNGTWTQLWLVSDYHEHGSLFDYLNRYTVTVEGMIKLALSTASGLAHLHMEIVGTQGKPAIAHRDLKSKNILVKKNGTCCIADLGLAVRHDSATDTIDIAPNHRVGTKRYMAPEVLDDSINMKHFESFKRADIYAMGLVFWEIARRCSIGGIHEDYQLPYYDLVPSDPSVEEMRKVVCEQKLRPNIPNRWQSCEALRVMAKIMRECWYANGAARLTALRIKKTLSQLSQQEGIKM", "assay": "In vitro TGFβ receptor kinase assay (pull down)", "type": "biochemical", "details": "20 μM", "method": "In vitro TGFβ receptor kinase assay. A549 cells were transiently co-transfected with Flag-tagged human TGFbeta receptor I and II. After 24 hours the cells were lysed in 1% NP40 lysis buffer (1% NP40, 20 mM Tris pH7.6, 200 mM NaCl plus protease inhibitor cocktail, 10 mM NaF, 1 mM Na3VO4), and the type I and II receptors were immunoprecipitated using anti-Flag antibody and Protein G-agarose (Roche). The beads were washed three times with kinase buffer (0.01% Triton X-100, 25 mM HEPES, pH 7.4, 2 mM MnCl2, 10 mM MgCl2, 20 μM DTT, 0.1 mM NaF, 0.1 mM Na3 VO4). The kinase reactions were initiated by addition of 0.1 mM ATP in the presence or absence of inhibitors or lysate from A549 cells pre-treated with corilagin. The kinase reactions were terminated by addition of an equal volume of 2×sample buffer. The TGFbeta receptor kinase activity was analyzed by SDS-PAGE and immunoblotting with anti-phosphotyrosine monoclonal antibody 4G10 (EMD Millipore) and anti-Flag antibody."}, "[3]": {"target": "T2, ALK5/TGFβRI catalytic domain (Homo sapiens, UniProt P36897)", "T2 construct": "ALK5/TGFβRI kinase assays using purified catalytic domain was performed", "T2 sequence (P36897 205-495 limits assumed)": "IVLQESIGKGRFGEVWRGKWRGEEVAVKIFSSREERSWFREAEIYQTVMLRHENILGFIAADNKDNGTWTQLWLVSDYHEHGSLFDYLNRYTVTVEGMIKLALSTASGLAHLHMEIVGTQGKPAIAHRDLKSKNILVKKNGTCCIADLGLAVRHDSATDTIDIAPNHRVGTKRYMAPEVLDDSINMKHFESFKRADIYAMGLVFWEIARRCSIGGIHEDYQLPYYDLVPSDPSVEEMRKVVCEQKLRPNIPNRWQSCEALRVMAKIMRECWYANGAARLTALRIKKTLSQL", "assay": "ALK5/TGFβRI catalytic domain kinase assay", "type": "biochemical", "method": "ALK5/TGFβRI catalytic domain kinase assay. ALK5/TGFβRI kinase assays using purified catalytic domain was performed. The reaction buffer contains 20 mM Hepes (pH 7.5), 10 mM MgCl2, 1 mM EGTA, 0.02% Brij35, 0.02 mg/ml BSA, 0.1 mM Na3VO4, 2 mM DTT, and 200 μM NAC. In brief, ten 3-fold series dilutions of 3Abd and 2Abd starting at 100 μM was delivered into kinase reaction mixture with kinase, cofactors, and substrate. After 20 min incubation at room temperature, ^33P-ATP was delivered into the mixture to initiate the reaction. Kinase activity was detected 2 h later by P81 filter-binding method."}, "[4]": {"system": "TGFβ1-induced epithelial-mesenchymal transition (EMT) in A549 adenocarcinoma cells", "assay": "TGFβ1-induced EMT in A549 cells (image-based screen, immunoblot)", "type": "cell-based", "details": "catechins 1 and 10 μM, 48 h", "method": "High throughput screen and high content imaging analysis. A549 cell-based screening of inhibitors to TGFβ1-induced EMT from a bioactive small molecule library was performed in 384-well plate format and the images were captured and analyzed using GE IN Cell 2000 as described previously^16.\nas §1"}, "[5]": {"system": "C57BL/6 mice, intratracheal bleomycin", "assay": "Bleomycin fibrosis model", "type": "in vivo", "description": "For histological assessment of lung collagen, frozen sections of the left lung were stained using Masson's Trichrome stain kit (American MasterTech, Lodi, Calif., USA).\nBleomycin fibrosis model. Eight-week old C57BL/6 mice were intratracheally instilled with saline or 1.9 units/kg of bleomycin (Sigma-Aldrich). Mice were implanted with osmotic pumps loaded with ellagic acid salt (24 mg/kg/day, Day 10-Day 17), fed with red raspberry diet (Day 0-Day 21), or gavaged with corilagin (100 mg/kg, Day 10-Day 21). Controls were treated with control pump, control diet, or vehicle in the same formulation. The lungs were lavaged and followed by OCT embedding for imaging or snap freezing in liquid nitrogen for protein extraction or hydroxyproline assay.\nCollagen content Lung or aorta collagen content was evaluated using hydroxyproline assay. Briefly, whole left lung tissue or aorta was hydrolyzed in 1 ml 12N HCl at 110° C. for 24 h and the hydroxyproline was detected by incubating with Chloramine T and p-dimethylaminobenzaldehyde and the absorbance was measured at 550 nm. Each sample was run in triplicate. Collagen content in lung or aorta tissues was expressed as micrograms of collagen per lung or aorta and was converted from micrograms of hydroxyproline."}, "Solubility (statement)": {"assay": "Solubility (statement)", "type": "physicochemical"}, "human LOXL2": {"target": "T3, human LOXL2 (Homo sapiens, UniProt Q9Y4K0)", "T3 sequence (Q9Y4K0 26-774)": "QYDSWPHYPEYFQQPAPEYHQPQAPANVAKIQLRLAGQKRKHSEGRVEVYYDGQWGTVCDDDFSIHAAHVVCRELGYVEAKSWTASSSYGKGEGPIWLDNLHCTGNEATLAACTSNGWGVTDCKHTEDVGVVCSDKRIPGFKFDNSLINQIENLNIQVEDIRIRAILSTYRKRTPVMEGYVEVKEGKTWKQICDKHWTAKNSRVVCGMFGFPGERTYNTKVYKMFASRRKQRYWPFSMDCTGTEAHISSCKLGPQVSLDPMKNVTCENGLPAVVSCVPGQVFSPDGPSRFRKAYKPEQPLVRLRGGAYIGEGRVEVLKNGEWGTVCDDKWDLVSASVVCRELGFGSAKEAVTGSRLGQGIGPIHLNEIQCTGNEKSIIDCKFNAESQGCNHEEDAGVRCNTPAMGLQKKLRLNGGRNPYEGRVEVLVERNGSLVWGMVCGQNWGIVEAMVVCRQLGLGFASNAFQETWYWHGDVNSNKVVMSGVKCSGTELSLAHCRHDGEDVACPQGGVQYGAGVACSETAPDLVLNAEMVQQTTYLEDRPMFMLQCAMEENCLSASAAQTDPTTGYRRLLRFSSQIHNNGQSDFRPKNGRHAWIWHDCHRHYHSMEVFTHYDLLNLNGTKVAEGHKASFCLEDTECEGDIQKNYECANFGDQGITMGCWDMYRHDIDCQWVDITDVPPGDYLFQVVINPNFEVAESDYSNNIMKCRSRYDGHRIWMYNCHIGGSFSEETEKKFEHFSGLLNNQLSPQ", "assay": "Collagen crosslinking induced by recombinant LOXL2 in lung fibroblasts (Sircol assay)", "type": "cell-based", "details": "primary human lung fibroblasts, 7 days", "method": "Preparation of insoluble cross-linked collagen. Fibroblasts were cultured on 10 cm dish until confluent. The medium was then changed to Dulbecco's modified Eagle's medium (DMEM) containing 5% FBS, 100 μM L-ascorbic acid with 500 kDa Dextran Sulfate at 100 μg/ml, and 50 ng/ml recombinant human LOXL2 (rhLOXL2) for 7 days^21,22. The cell layer was extracted with 0.5 M acetic acid and 0.1 mg/ml pepsin overnight at 4° C. The leftover insoluble fraction was further extracted and the insoluble cross-linked collagen measured using Sircol Insoluble Collagen Assay kit according to manufacture's instruction."}}, "note": "pIC50: −log10 of the molar value. “And” between values parts separate entries of the source, which are not always exact repeats. Equal values may be shown once. “Also recorded” adds a separate entry of the source.", "data": [{"smiles": "Nc1cccc(O)c1O", "note": "[Target 3Abd, 3-aminobenzene-1,2-diol]", "values": [{"measurement": "inhibition of TGFβ1-induced p-smad3 and snail 1 without pre-incubation and regardless of LOXL2 expression", "setting": "[1]", "result": "potent inhibitor"}, {"measurement": "activity in a pull down kinase assay from cells overexpressing TGFβRI", "setting": "[2]", "result": "blocked activity"}, {"measurement": "direct inhibition of TGFβRI kinase activity", "setting": "[3]", "result": "directly inhibit; also recorded: directly blocked"}, {"measurement": "pIC50", "setting": "[3]; ten doses starting from 100 μM, 33P-ATP", "result": "~5.52 and 5.52"}]}, {"smiles": "Nc1ccc(O)c(O)c1", "note": "[Target 4Abd, 4-aminobenzene-1,2-diol]", "values": [{"measurement": "inhibition of TGFβ1-induced p-smad3 and snail 1 without pre-incubation and regardless of LOXL2 expression", "setting": "[1]", "result": "not"}]}, {"smiles": "Oc1cc(O)c2c(c1)O[C@H](c1cc(O)c(O)c(O)c1)[C@H](O)C2", "note": "[EGC, epigallocatechin]", "values": [{"measurement": "inhibition of snail 1 and fibronectin in TGFβ1 stimulated A549 cells", "setting": "[4]", "result": "potent inhibitor"}]}, {"smiles": "O=c1oc2c(O)c(O)cc3c(=O)oc4c(O)c(O)cc1c4c23", "note": "[EA, Ellagic acid]", "values": [{"measurement": "survival after intratracheal bleomycin", "setting": "[5]; EA chow day 21, EA pump day 17", "result": "improve survival"}, {"measurement": "collagen accumulation after intratracheal bleomycin", "setting": "[5]; ad libitum chow of 2% w/w raspberry extract rich in EA and EA precursors", "result": "substantially block"}, {"measurement": "solubility", "setting": "Solubility (statement)", "result": "poorly soluble"}]}, {"smiles": "NC(=O)c1ccc(-c2nc(-c3ccc4c(c3)OCO4)c(-c3ccccn3)[nH]2)cc1", "note": "[SB431542]", "values": [{"measurement": "effect on collagen crosslinking induced by recombinant LOXL2", "setting": "human LOXL2", "result": "no effect"}]}, {"smiles": "Oc1cccc(Cl)c1O", "note": "[3 Cc, 3-chlorocatechol]", "values": [{"measurement": "activity in a pull down kinase assay from cells overexpressing TGFβRI", "setting": "[2]", "result": "not"}]}, {"smiles": "Nc1c(O)cccc1O", "note": "[Target 2Abd, 2-aminobenzene-1,3-diol]", "values": [{"measurement": "inhibition of TGFβ1-induced p-smad3 and snail 1 without pre-incubation and regardless of LOXL2 expression", "setting": "[1]", "result": "not"}, {"measurement": "direct inhibition of TGFβRI kinase activity", "setting": "[3]", "result": "not"}]}, {"smiles": "Oc1cc(O)c2c(c1)O[C@H](c1ccc(O)c(O)c1)[C@H](O)C2", "note": "[EC, epicatechin]", "values": [{"measurement": "inhibition of snail 1 and fibronectin in TGFβ1 stimulated A549 cells", "setting": "[4]", "result": "no activity"}]}, {"smiles": "CC(=O)N[C@@H](CS)C(=O)O", "note": "[NAC, N-acetylcysteine]", "values": [{"measurement": "effect on collagen crosslinking induced by recombinant LOXL2", "setting": "human LOXL2", "result": "no effect"}]}]}
